# Data as given in article PMC3665789 (PLoS ONE, 2013).
# Where two headings read alike, the source gives them in different places.
# Key:
# [1] = Cytotoxicity assay (MTS/PES); assay type: cell-based
# Procedure: (§1) Cytotoxicity in PBMCs (3 days), MT-4 (5 days), HUT-78 (1 day), C8166-(5 days), HEL (3 days) and Daudi cells (3 days) was measured using the MTS/PES method. The duration of the assays is given between brackets.
# [2] = tested on: HSV-1 TK^-; conditions: read-out: Median EC50; median over HSV-1 TK- strains; HEL cells
# [3] = tested on: HSV-2; experiment: Cellular binding experiment: pre-treatment of cells, compound removed, HSV-2 infection; assay type: cell-based; conditions: data not shown
# [4] = tested on: HIV-induced cell-cell syncytia formation (HUT-78/IIIB and SupT1 cells); experiment: Giant cell cocultivation assay (HUT-78/IIIB + SupT1); assay type: cell-based, HIV-1
# Procedure: The cocultivation experiments were performed as described previously. In brief, LabyA1 was diluted in cell culture medium and 100 µl was added in 96-well plate (BD, Falcon) along with the SupT1 T cells (1×10^5 cells/50 µl). The same amount of persistently HIV-infected HUT-78/IIIB cells were seeded and incubated at 37°C for 24 h. The next day, giant cell formation was scored microscopically and in addition the depletion of the CD4^+ SupT1 cells was measured by flow cytometry.
# The depletion of the target CD4^+ SupT1 T cells in the cocultivation assays was measured using PE-conjugated […] (BD Biosciences). The cells were incubated for 30 minutes at room temperature with anti-CD28-PE. After several washing steps, the cells were fixed with a 1% paraformaldehyde solution and analyzed by flow cytometry.
# [5] = tested on: HSV-2 wild-type RV-124 (clinical isolate); conditions: HEL cells; HSV-2 RV-124; CPE
# [6] = tested on: HIV-2 ROD (R5/X4); conditions: read-out: EC50 (µM ± SEM), PBMCs, p27 HIV-2 Ag ELISA
# [7] = tested on: HIV-1 NL4.3 (X4); conditions: read-out: EC50 (µM ± SEM), MT-4 cells, MTS/PES method
# [8] = tested on: HIV-1 ID12 (clinical isolate; R5); conditions: PBMCs; ID12, group M subtype A/E; p24 Ag ELISA
# [9] = tested on: HIV-1 NL4.3 (X4); conditions: read-out: EC50 (µM ± SEM), PBMCs, p24 Ag ELISA
# [10] = tested on: HIV-1 UG273 (clinical isolate; R5); conditions: PBMCs; UG273, group M subtype A; p24 Ag ELISA
# [11] = tested on: HSV-1 wild-type RV-174 (clinical isolate); conditions: HEL cells; HSV-1 RV-174; CPE
# [12] = tested on: HIV-1 BaL (R5); conditions: read-out: EC50 (µM ± SEM), PBMCs, p24 Ag ELISA
# [13] = tested on: HIV-1 NL4.3; experiment: Pre-incubation of MT-4 cells with compound, wash, then HIV-1 NL4.3 infection; assay type: cell-based; conditions: MT-4 cells pre-incubated 2 h at 37°C, washed, infected with HIV-1 NL4.3; 5 days; control 100% CPE
# [14] = tested on: HIV; conditions: read-out: anti-HIV activity EC50 range; range over all HIV strains in cell cultures
# [15] = tested on: HIV-1 DJ259 (clinical isolate; R5); conditions: PBMCs; DJ259, group M subtype C; p24 Ag ELISA
# [16] = tested on: HSV-1 TK^- RV-294 (clinical isolate); conditions: HEL cells, CPE
# [17] = tested on: HSV-1 wild-type RV-175 (clinical isolate); conditions: HEL cells; HSV-1 RV-175; CPE
# [18] = tested on: HIV-1 R5 BaL in PBMCs; experiment: Susceptibility of pre-treated PBMCs for HIV-1 infection; conditions: washed, HIV-1 BaL, day 7
# Procedure: The next day, cells were collected, extensively washed in culture medium, resuspended (5×10^5 cells/450 µl) and seeded in a 48-well plate. Immediately afterwards, 50 µl of HIV-1 R5 strain BaL (500 pg/well) was added and cells were cultures for 7 days. Supernatant was collected 7 days post virus infection and viral replication was determined by p24 HIV-1 Ag ELISA.
# [19] = tested on: HSV-2 TK^- BA19026589 (clinical isolate); conditions: HEL cells, CPE
# [20] = tested on: HIV-1 NL4.3^2G12res. (X4); conditions: read-out: EC50 (µM ± SEM); MT-4 cells; NL4.3 resistant to mAb 2G12; MTS/PES
# [21] = tested on: HIV-1 BCF-06 (clinical isolate; X4); conditions: PBMCs; BCF-06, group O; p27 Ag ELISA
# [22] = Cytotoxicity assay (MTS/PES); assay type: cell-based, human; conditions: HEL cells, 3 days
# Procedure: as §1
# [23] = tested on: HIV-1 BaL (R5); conditions: read-out: EC50 (µM ± SEM), MDM, p24 Ag ELISA
# Procedure: Afterwards, the non-adherent cells were gently mixed and removed from the adherent cell layer. The cells were carefully washed and this washing step was repeated after 6 days of incubation at 37°C. The adherent cells were then infected with HIV-1 R5 BaL.
# MDM were seeded in a 48-well plate in 1 ml medium. […] Each concentration was tested in triplicate. After an incubation of 30 minutes at 37°C, 1000 pg/well of p24 Ag of HIV-1 R5 BaL was added. Three weeks post-infection, supernatant was collected and viral replication evaluated by p24 HIV-1 Ag ELISA.
# [24] = tested on: laboratory-adapted HIV strains
# [25] = tested on: HIV-1 CI#17 (clinical isolate; X4); conditions: PBMCs; CI#17, group M subtype B; p24 Ag ELISA
# [26] = tested on: HIV-1 NL4.3^AMD3100res. (X4); conditions: read-out: EC50 (µM ± SEM); MT-4 cells; NL4.3 resistant to AMD3100; MTS/PES
structure (smiles),measurement,setting,value
"C/C=C1\NC(=O)[C@H](Cc2ccccc2)NC(=O)[C@@H]2CCCN2C(=O)[C@H](C(C)C)NC(=O)[C@H](Cc2c[nH]c3ccccc23)NC(=O)[C@]23CSC[C@H](NC1=O)C(=O)N[C@H](C(=O)O)CSSC[C@H](NC(=O)[C@@H]1CSC[C@]4(C[C@H](N)C(=O)N[C@@H](CC(N)=O)C(=O)N[C@@H](C)C(=O)N4)C(=O)N[C@@H](C(C)C)C(=O)N[C@@H](Cc4c[nH]c5ccccc45)C(=O)N[C@@H](CCC(=O)O)C(=O)N1)C(=O)N[C@@H](C2)C(=O)N[C@@H]([C@@H](C)O)C(=O)NCC(=O)N3 [LabyA1, labyrinthopeptin A1]",CC50,"[1]; C8166 cells, 5 days",23000 nM
same,CC50,"[1]; Daudi cells, 3 days",> 48000 nM
same,CC50,"[1]; HUT-78 cells, 1 day",> 31000 nM
same,CC50,"[1]; MT-4 cells, 5 days",33000 nM
same,CC50,"[1]; PBMCs, 3 days",45000 nM
same,EC50,[2],1900 nM
same,inhibition of HSV-2 replication after pre-treatment of cells for 1 h and removal of compound,[3],lost its ability to inhibit HSV-2 replication
same,activity in cell-cell fusion assay,"[4]; 0.96 µM, light microscopy",no activity was observed
same,giant cell formation,"[4]; 4.8 µM, light microscopy",some giant cells were formed
same,giant cell formation,"[4]; 24 µM, light microscopy",completely inhibited
same,EC50,"[4]; 24 h coculture, CD28 flow cytometry, read-out: EC50, survival of SupT1 T cells in coculture with HUT-78/IIIB cells",2500 nM
same,EC50,[5],1400 ± 400 nM
same,EC50,[6],1 ± 0.3 µM
same,EC50,[7],1.7 ± 0.4 µM
same,EC50,[8],1200 ± 800 nM
same,EC50,[9],0.79 ± 0.09 µM
same,EC50,[10],1900 ± 100 nM
same,EC50,[11],2700 ± 1000 nM
same,EC50,[12],3.3 ± 0.4 µM
same,% CPE after pre-incubation of cells and removal of compound,[13],96.8±3.2 % CPE
same,EC50,[14],700 to 3300 nM
same,EC50,[15],940 ± 430 nM
same,EC50,[16],310 nM
same,EC50,[17],2800 ± 500 nM
same,p24 HIV-1 Ag production after pre-treatment,[18]; PBMCs pre-treated 24 h with 1.9 µM,12.26 ± 4.61 ng/mL
same,p24 HIV-1 Ag production after pre-treatment,"[18]; PBMCs pre-treated 24 h with 9.6 µM, no compound 12.69±4.83",15.37 ± 3.75 ng/mL
same,EC50,[19],290 ± 100 nM
same,EC50,[20],2.2 ± 0.3 µM
same,EC50,[21],830 ± 330 nM
same,CC50,[22],> 48000 nM
same,EC50,[23],2.4 ± 0.8 µM
same,EC50,"[24]; read-out: EC50 range, range over cell-line adapted HIV strains (Table 1)",790 to 3300 nM
same,EC50,"[24]; read-out: Median EC50, median over laboratory-adapted HIV strains in MT-4, PBMCs, MDM",1900 nM
same,EC50,[25],1000 ± 200 nM
same,EC50,[26],2.4 ± 0.5 µM
